Earlier results on one molecule are cited in patent US20120046321A1, “METHODS OF TREATING ATRIAL FIBRILLATION WITH P38 INHIBITOR COMPOUNDS” (INTERMUNE, INC., priority 2005, published 2012).

In the series the test system is canine model, VTP-induced CHF. As to conditions: Li et al., Circulation 2001; cited from earlier work.

`CCOC(=O)[C@H](CCc1ccccc1)N[C@@H](C)C(=O)N1CCC[C@H]1C(=O)O` [enalapril]: the “Ang II concentration” value is on record as “reduction”, the Arrhythmogenic atrial remodeling entry is “less” and the ERK activation entry is “reduction”.
